Like-named read-outs stand apart in the source and are kept apart here.
Tests used:
[1] = Phase 3 oral omadacycline vs oral linezolid in ABSSSI: safety (adverse events, TEAEs, vital signs, ECG, laboratory); type: in vivo; conditions: safety population
Text: An Adverse Event (AE) is any untoward, undesired, or unplanned event in the form of signs, symptoms, disease, or laboratory or physiologic observations occurring in a person given a test article or in a clinical study. […] An AE includes, but is not limited to, the following: any clinically significant worsening of a preexisting condition; an AE occurring from overdose of a test article, whether accidental or intentional; overdose is a dose greater than that specified in the protocol; an AE occurring from abuse (e.g., use for nonclinical reasons) of a test article; and an AE that has been associated with the discontinuation of the use of a test article.
The severity (or intensity) of an AE was classified using the following criteria:
Concerning relatedness, causality (i.e., whether there was a reasonable possibility that test article caused the event) for all AEs and SAEs was assessed.
Safety variables include the incidence rate of AEs, change in vital signs, ECG parameters and laboratory test results obtained during the course of the study. For safety analyses, subjects were analyzed according to the treatment actually received.
Summary tables were provided for all treatment-emergent adverse events (TEAEs). A TEAE is defined as an AE with a start date and time on or after the first dose of test article. […] Additional tabulations provide summaries by SOC and PT of subjects experiencing SAEs, severe TEAEs, TEAEs judged to be related to test article, TEAEs leading to discontinuation of test article, and TEAEs of special interest.
The following variables were analyzed descriptively: Vital signs (systolic and diastolic BP, pulse rate, body temperature, respiratory rate), including change from Screening by visit; Clinically notable vital signs (meeting predefined criteria as specified in the SAP) by visit. Subjects with notable vital signs data were listed.
ECG data (RR interval, PR interval, QRS interval, QTc, QTc Bazett's Correction Formula [QTcB], and QTc Fridericia's Correction Formula [QTcF]) was summarized descriptively at each scheduled evaluation, and for the overall worst post-Screening value. Changes from Screening at each visit that a 12-lead ECG was obtained was also provided. An outlier analysis was conducted based on the worst post-Screening value.
The following variables were analyzed descriptively: Laboratory variables by visit; Change from Screening of laboratory variables by visit; and Clinically notable laboratory values (meeting predefined criteria specified in the SAP) by visit.

[2] = Phase 1 multiple oral dose study: urine pharmacokinetics; type: in vivo, human; conditions: for CL renal: human
Procedure: Urine samples were only collected from a subset of subjects because analysis of urine PK was added by an amendment to the study protocol after the study was already underway. […] Additional parameters […] Ae0-24 were also calculated.

For `CN(C)c1cc(CNCC(C)(C)C)c(O)c2c1C[C@H]1C[C@H]3[C@H](N(C)C)C(O)=C(C(N)=O)C(=O)[C@@]3(O)C(O)=C1C2=O` [Omadacycline, 9-[(2,2-dimethyl-propylamino)-methyl]-minocycline], the Subjects who died [1] was 0 n (%), the “Subjects with at Least One Adverse Events (AE)” value [1] was 201 (54.6) n (%) and the “Subjects with at Least One Drug-Related Serious TEAE” value [1] was 0 n (%). For the same molecule, the “Subjects with at Least One Drug-Related TEAE” value [1] was 139 (37.8) n (%), the “Subjects with at Least One Serious TEAE” value [1] was 5 (1.4) n (%) and the “Subjects with at Least One Serious TEAE leading to Death” value [1] was 0 n (%). For the same molecule, the “Subjects with at Least One Serious TEAEs leading to premature discontinuation of test article” value [1] was 3 (0.8) n (%), the “Subjects with at Least One Severe TEAE” value [1] was 6 (1.6) n (%) and the “Subjects with at Least One TEAE Leading to Study Drug Discontinuation” value [1] was 6 (1.6) n (%). The “Subjects with at Least One TEAE leading to dose interruption” value [1] was 0 n (%), the “Subjects with at Least One TEAE leading to premature discontinuation of study” value [1] was 3 (0.8) n (%) and the “Subjects with at Least One TEAE leading to premature discontinuation of test article” value [1] was 6 (1.6) n (%). The “TEAE leading to study drug discontinuation: Cellulitis” value [1] was 1 (0.3) n (%), the “TEAE leading to study drug discontinuation: Gastrointestinal Disorders (SOC)” value [1] was 1 (0.3) n (%) and the “TEAE leading to study drug discontinuation: Haematemesis” value [1] was 1 (0.3) n (%). For the same molecule, the “TEAE leading to study drug discontinuation: Infections And Infestations (SOC)” value [1] was 4 (1.1) n (%), the “TEAE leading to study drug discontinuation: Nausea” value [1] was 1 (0.3) n (%) and the “TEAE leading to study drug discontinuation: Pregnancy” value [1] was 1 (0.3) n (%). The “TEAE leading to study drug discontinuation: Pregnancy, Puerperium And Perinatal Conditions (SOC)” value [1] was 1 (0.3) n (%), the “TEAE leading to study drug discontinuation: Staphylococcal Bacteraemia” value [1] was 1 (0.3) n (%) and the “TEAE leading to study drug discontinuation: Subcutaneous Abscess” value [1] was 1 (0.3) n (%). For the same molecule, the “TEAE leading to study drug discontinuation: Vomiting” value [1] was 1 (0.3) n (%), the “TEAE leading to study drug discontinuation: Wound Infection” value [1] was 1 (0.3) n (%) and the “TEAE: Alanine Aminotransferase Increased” value [1] was 19 (5.2) n (%). The “TEAE: Aspartate Aminotransferase Increased” value [1] was 17 (4.6) n (%), the “TEAE: Cellulitis” value [1] was 12 (3.3) n (%) and the “TEAE: Headache” value [1] was 13 (3.5) n (%). The “TEAE: Wound Infection” value [1] was 22 (6.0) n (%), the “Total Number of AEs” value [1] was 468 and the “Total Number of TEAEs” value [1] was 448. The “Subjects with at Least One TEAE” value ([1]; AE overview) was 197 (53.5) n (%), the “TEAE: Abdominal Pain Upper” value ([1]; all severities) was 10 (2.7) n (%) and the “TEAE: Diarrhea” value ([1]; all severities) was 15 (4.1) n (%). The “TEAE: Nausea” value ([1]; all severities) was 111 (30.2) n (%), the “TEAE: Vomiting” value ([1]; all severities) was 62 (16.8) n (%) and the “Subjects with at Least One TEAE, Mild” value ([1]; highest severity Mild) was 120 (32.6) n (%). For the same molecule, the “TEAE: Abdominal Pain Upper, Mild” value ([1]; highest severity Mild) was 9 (2.4) n (%), the “TEAE: Abdominal Pain, Mild” value ([1]; highest severity Mild) was 3 (0.8) n (%) and the “TEAE: Diarrhea, Mild” value ([1]; highest severity Mild) was 13 (3.5) n (%). The “TEAE: Gastrointestinal Disorders (SOC), Mild” value ([1]; highest severity Mild) was 105 (28.5) n (%), the “TEAE: Nausea, Mild” value ([1]; highest severity Mild) was 83 (22.6) n (%) and the “TEAE: Vomiting, Mild” value ([1]; highest severity Mild) was 44 (12.0) n (%). The “Subjects with at Least One TEAE, Moderate” value ([1]; highest severity Moderate) was 71 (19.3) n (%), the “TEAE: Abdominal Pain Upper, Moderate” value ([1]; highest severity Moderate) was 1 (0.3) n (%) and the “TEAE: Abdominal Pain, Moderate” value ([1]; highest severity Moderate) was 3 (0.8) n (%). The “TEAE: Diarrhea, Moderate” value ([1]; highest severity Moderate) was 2 (0.5) n (%), the “TEAE: Gastrointestinal Disorders (SOC), Moderate” value ([1]; highest severity Moderate) was 39 (10.6) n (%) and the “TEAE: Nausea, Moderate” value ([1]; highest severity Moderate) was 28 (7.6) n (%). For the same molecule, the “TEAE: Vomiting, Moderate” value ([1]; highest severity Moderate) was 18 (4.9) n (%), the “Subjects with at Least One TEAE, Severe” value ([1]; highest severity Severe) was 6 (1.6) n (%) and the “TEAE: Abdominal Pain Upper, Severe” value ([1]; highest severity Severe) was 0 n (%). For the same molecule, the “TEAE: Abdominal Pain, Severe” value ([1]; highest severity Severe) was 0 n (%), the “TEAE: Diarrhea, Severe” value ([1]; highest severity Severe) was 0 n (%) and the “TEAE: Gastrointestinal Disorders (SOC), Severe” value ([1]; highest severity Severe) was 0 n (%). For the same molecule, the “TEAE: Nausea, Severe” value ([1]; highest severity Severe) was 0 n (%), the “TEAE: Vomiting, Severe” value ([1]; highest severity Severe) was 0 n (%) and the “Subjects with at Least One TEAE” value ([1]; most frequent (≥2%) TEAEs table) was 197 (53.5) n (%). For the same molecule, the “Ae0-24, Mean (CV)” value ([2]; 300 mg, Day 1 (n = 2)) was 20.37 (8.3) mg, the “Fe0-24, Mean (CV)” value ([2]; 300 mg, Day 1 (n = 2)) was 6.79 (8.3) % and the “Ae0-24, Mean (CV)” value ([2]; 300 mg, Day 5 (n = 3)) was 26.14 (14.6) mg. For the same molecule, the “Fe0-24, Mean (CV)” value ([2]; 300 mg, Day 5 (n = 3)) was 8.71 (14.6) %, the “Ae0-24, Mean (CV)” value ([2]; 450 mg, Day 1 (n = 3)) was 25.06 (16.8) mg and the “Fe0-24, Mean (CV)” value ([2]; 450 mg, Day 1 (n = 3)) was 5.57 (16.8) %. The “Ae0-24, Mean (CV)” value ([2]; 450 mg, Day 5 (n = 5)) was 30.81 (33.0) mg, the “Fe0-24, Mean (CV)” value ([2]; 450 mg, Day 5 (n = 5)) was 6.85 (33.0) % and the “Ae0-24, Mean (CV)” value ([2]; 600 mg, Day 1 (n = 1)) was 31.96 mg. For the same molecule, the “Fe0-24, Mean (CV)” value ([2]; 600 mg, Day 1 (n = 1)) was 5.33%, the “Ae0-24, Mean (CV)” value ([2]; 600 mg, Day 5 (n = 4)) was 51.82 (14.8) mg and the “Fe0-24, Mean (CV)” value ([2]; 600 mg, Day 5 (n = 4)) was 8.64 (14.8) %. For the same molecule, the CL renal ([2]; in vivo, 300 mg, Day 1 (n = 2), read-out: CLr, Mean (CV) (converted)) was 50.2 mL/min, the CL renal ([2]; in vivo, 300 mg, Day 5 (n = 3), read-out: CLr, Mean (CV) (converted)) was 54.7 mL/min and the CL renal ([2]; in vivo, 450 mg, Day 1 (n = 3), read-out: CLr, Mean (CV) (converted)) was 46.7 mL/min. For the same molecule, the CL renal ([2]; in vivo, 450 mg, Day 5 (n = 5), read-out: CLr, Mean (CV) (converted)) was 39.7 mL/min, the CL renal ([2]; in vivo, 600 mg, Day 1 (n = 1), read-out: CLr, Mean (CV) (converted)) was 69.5 mL/min and the CL renal ([2]; in vivo, 600 mg, Day 5 (n = 4), read-out: CLr, Mean (CV) (converted)) was 50.8 mL/min. The CL renal ([2]; urine, oral, all omadacycline dose groups, Day 1, read-out: Renal clearance (CLr)) was 46.7 to 70 mL/min and the CL renal ([2]; urine, oral, all omadacycline dose groups, Day 5, read-out: Renal clearance (CLr)) was 40 to 55 mL/min.
